The values that follow come from patent publication US20240148745A1, “COMPOUNDS FOR USE IN PROGRESSIVE MULTIPLE SCLEROSIS” (FONDAZIONE CENTRO SAN RAFFAELE, priority 2021, published 2024).

Molecules are shown by their SMILES.

For data set [1], the system named is neonatal mouse oligodendrocyte progenitor cells. As to the kind of experiment: MTT metabolic activity / toxicity assay on neonatal mouse OPCs. The class given is cell-based. The note with it: 1 and 10 microM, viability vs DMSO. As for the experimental part: Purified oligodendrocyte progenitor cells (OPC) obtained from neonatal mouse primary mixed glial cultures^25 were plated at the density of 6*10^4 cells/cm^2 into poly-L-lysine-coated 96 well plates. One day after plating, the cells were incubated with or without drugs (10, 1 and 0.1 μM) in DMSO (0.001% vehicle) for 48 hours. Compounds were screened for their ability to reduce [3-(4,5-dimethylthiazol-2-yl)-2,5-diphenyltetrazolium bromide (MTT)] using an automated microplate reader (Bio-rad, Hercules, CA, USA), as previously described.^25 MTT (0.25 mg/ml, Sigma-Aldrich, St Louis, MO) was added to the culture medium during the final 4 hours of incubation.
Toxicity of the full list of drugs (274) at 10 μM have been evaluated on neonatal mouse oligodendrocyte progenitor cells via metabolic activity by MTT. First, drugs able to reduce OPC viability were selected, identifying 90 compounds with a cytotoxic effect defined by the Efficacy Ratio ER (absorbance of drug/absorbance of vehicle; PMID: 28387380) (ER≤0.4) which have not been further investigated—and 44 drugs inhibiting OPC metabolism at lower level (0.5<ER<0.8)—which were analyzed in the next experimental setting. As a result, 90 compounds were cytotoxic, 44 compounds with low toxicity were retested at 1 and 0.1 μM, 140 compounds (ER>0.8) were non-toxic and were re-tested.

Data set [2] relates to double fluorescence CG4 cell line (rat OPC line). Put plainly: Toxicity assay (cell density) on double fluorescence CG4 line. It counts as cell-based. The settings on record: 1 and 10 microM, viability vs basal condition. An excerpt:
Primary validation on CG4 line toxicity and differentiation. An innovative OPC line was developed for fast and reliable high content screening (HCS) of small compounds inducing oligodendrocyte differentiation. The line was genetically engineered by lentiviral transduction of rat CG4 cells (PubMed=1613821; DOI=10.1002/jnr.490310125; Louis J. C., Magal E., Muir D., Manthorpe M., Varon S.; CG-4, a new bipotential glial cell line from rat brain, is capable of differentiating in vitro into either mature oligodendrocytes or type-2 astrocytes. J. Neurosci. Res. 31:193-204(1992) to express mCherry fluorescent reporter (Evercooren, Anne & Avellana-Adalid, V. & Vitry, Sandrine & Nait-Oumesmar, Brahim & Lachapelle, Francois. (1997). Expansion of Oligodendrocyte Progenitors for Myelin Repair. 10.1007/978-1-4615-5949-8_21) in mature oligodendrocytes only, and EGFP at all stage of the oligodendroglial lineage: both the generation of mature oligodendrocytes (wmNl-mCherry) and the morphological changes associated with differentiation (CMV-EGFP) can be therefore monitored in a single assay. mCherry expression occurred only in O4+/GalC+ differentiated oligodendrocytes and GFP was ubiquitously expressed at all developmental stages. […]
Compounds (272) were tested at 1 μM, using a double fluorescence CG4 cell line (rat OPC line), 9 cis-retinoic acid (1 μM) served as a positive control.

Take `O=C(N[C@@H]1CC[C@@H](c2cccc(F)c2F)CN(CC(F)(F)F)C1=O)N1CCC(n2c(=O)[nH]c3ncccc32)CC1` [Telcagepant]: in data set [1], the “cytotoxicity on neonatal mouse OPCs” value is “not toxic on oligodendrocytes”. In addition, the “cytotoxicity on CG4 line” value in data set [2] was “not toxic on oligodendrocytes”.
